Data from article PMC5503199 (Molecular microbiology, 2009).
Values joined by “and” are separate entries in the source; they are usually repeats but may differ in a detail not shown here. Equal values may be shown once. Read-outs that look alike come from different tables or passages of the source.

Tests used:
ChoXWV = biological target: T1, ChoXWV (Sinorhizobium meliloti, UniProt Q92N37); assay: Competitive uptake, MKH13 expressing choXWV; format: cell-based; conditions: pNchoXWV, SBP ChoX, [^14C]choline 10 μM, competitor 1 mM
T1 sequence (Q92N37 28-318): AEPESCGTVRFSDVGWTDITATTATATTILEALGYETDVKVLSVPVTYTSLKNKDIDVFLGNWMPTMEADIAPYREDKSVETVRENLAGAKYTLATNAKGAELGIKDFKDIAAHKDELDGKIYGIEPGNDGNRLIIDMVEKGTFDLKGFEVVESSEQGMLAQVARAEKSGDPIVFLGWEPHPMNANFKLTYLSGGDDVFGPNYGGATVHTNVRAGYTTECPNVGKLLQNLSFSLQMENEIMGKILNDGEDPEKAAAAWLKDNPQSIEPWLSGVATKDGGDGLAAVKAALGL
T1 sequence (Q92N36 1-281 partner): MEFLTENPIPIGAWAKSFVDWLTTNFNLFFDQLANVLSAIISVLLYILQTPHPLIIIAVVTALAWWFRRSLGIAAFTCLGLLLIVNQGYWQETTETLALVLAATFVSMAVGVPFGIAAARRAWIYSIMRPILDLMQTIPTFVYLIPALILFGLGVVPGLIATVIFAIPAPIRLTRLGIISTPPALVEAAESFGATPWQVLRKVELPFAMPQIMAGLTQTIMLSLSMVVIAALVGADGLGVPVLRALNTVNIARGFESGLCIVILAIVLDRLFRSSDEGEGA
T1 sequence (Q92N35 1-349 partner): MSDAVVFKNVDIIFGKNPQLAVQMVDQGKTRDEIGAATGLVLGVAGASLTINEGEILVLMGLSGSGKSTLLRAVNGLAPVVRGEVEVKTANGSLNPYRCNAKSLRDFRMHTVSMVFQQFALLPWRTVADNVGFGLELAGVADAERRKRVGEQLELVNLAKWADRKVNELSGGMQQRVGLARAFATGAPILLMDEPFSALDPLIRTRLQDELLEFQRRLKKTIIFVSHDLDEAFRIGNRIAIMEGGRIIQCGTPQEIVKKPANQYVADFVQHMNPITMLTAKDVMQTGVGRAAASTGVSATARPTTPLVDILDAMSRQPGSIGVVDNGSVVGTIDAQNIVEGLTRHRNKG

BetX with CbcWV = biological target: T2, BetX with CbcWV (Pseudomonas aeruginosa, UniProt Q9HZ04); assay: Competitive uptake, MKH13 expressing cbcWV and betX; format: cell-based; conditions: pNcbcWV, pT-PA3236, SBP BetX, [^14C]betaine 10 μM, competitor 1 mM
T2 sequence (Q9HZ04 26-285): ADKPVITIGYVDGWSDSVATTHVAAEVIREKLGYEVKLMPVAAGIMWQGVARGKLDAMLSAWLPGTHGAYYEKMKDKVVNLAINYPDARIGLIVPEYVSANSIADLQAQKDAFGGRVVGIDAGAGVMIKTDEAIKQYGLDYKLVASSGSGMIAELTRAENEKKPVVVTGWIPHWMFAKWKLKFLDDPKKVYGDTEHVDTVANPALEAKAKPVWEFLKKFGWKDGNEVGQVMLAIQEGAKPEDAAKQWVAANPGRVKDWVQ
T2 sequence (Q9HTI7 1-279 partner): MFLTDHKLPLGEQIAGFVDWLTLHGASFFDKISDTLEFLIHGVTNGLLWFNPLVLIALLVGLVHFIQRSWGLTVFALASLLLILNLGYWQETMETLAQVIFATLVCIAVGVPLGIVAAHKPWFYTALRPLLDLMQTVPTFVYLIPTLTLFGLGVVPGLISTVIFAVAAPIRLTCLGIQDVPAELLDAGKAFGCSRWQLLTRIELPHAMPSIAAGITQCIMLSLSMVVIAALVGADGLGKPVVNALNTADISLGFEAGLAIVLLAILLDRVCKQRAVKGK
T2 sequence (Q9HTI8 1-392 partner): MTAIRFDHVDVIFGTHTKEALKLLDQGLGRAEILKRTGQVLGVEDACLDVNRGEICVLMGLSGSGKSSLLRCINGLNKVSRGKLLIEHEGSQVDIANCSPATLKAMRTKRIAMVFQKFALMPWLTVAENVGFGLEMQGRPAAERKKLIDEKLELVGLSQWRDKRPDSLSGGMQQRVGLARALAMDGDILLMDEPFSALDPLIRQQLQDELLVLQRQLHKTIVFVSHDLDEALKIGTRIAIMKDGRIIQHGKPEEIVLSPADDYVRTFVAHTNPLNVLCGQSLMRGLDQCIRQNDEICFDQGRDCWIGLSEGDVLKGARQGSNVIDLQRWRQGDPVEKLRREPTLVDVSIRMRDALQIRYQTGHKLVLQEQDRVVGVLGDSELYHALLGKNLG

CbcX and CaiX with CbcWV = format: cell-based, Pseudomonas aeruginosa; conditions: MKH13, pNcbcXWV, pT-PA5388, SBPs CbcX/CaiX, competitor 1 mM
CaiX with CbcWV = format: cell-based, Pseudomonas aeruginosa; conditions: MKH13; pNcbcWV, pT-PA5388; SBP CaiX; [^14C]carnitine 10 μM; competitor 1 mM
CbcX with CbcWV = CbcX with CbcWV (Pseudomonas aeruginosa, UniProt Q9HTI6); assay: Competitive uptake, MKH13 expressing cbcXWV; format: cell-based
[1] = substrate: C[N+](C)(C)CCO; assay: cells, lysate or membranes; conditions: mean (SE), n = 4
[2] = substrate: C[N+](C)(C)C[C@H](O)CC(=O)[O-]; assay: cells, lysate or membranes; conditions: other: PA5378::tn, pNcbcWV; SBP CaiXPAO1; mean (SE), n = 4
[3] = substrate: C[N+](C)(C)CC(=O)O; assay: cells, lysate or membranes; conditions: mean (SE), n = 4
[4] = other: MKH13, pNcbcXWV, SBP CbcX, Michaelis–Menten fit

With `CC(=O)OCC[N+](C)(C)C` [AC, acetylcholine] the “% inhibition of uptake of substrate by unlabelled competitor” value (“% inhibition of uptake of substrate” below) (ChoXWV) was 88%.

For `CN(C)CC(=O)O` [DM, dimethylglycine], the “% inhibition of uptake of substrate” value (BetX with CbcWV) was 56%, the “% inhibition of uptake of substrate” value (CbcX and CaiX with CbcWV; [^14C]betaine 10 μM) was −4% and the “% inhibition of uptake of substrate” value (CbcX and CaiX with CbcWV; [^14C]choline 10 μM) was −8%. For the same molecule, the “% inhibition of uptake of substrate” value (CaiX with CbcWV) was 2%, the “% inhibition of uptake of substrate” value (CbcX with CbcWV) was 4% and the “% inhibition of uptake of substrate” value (CbcX with CbcWV; MKH13, pNcbcXWV, SBP CbcX, [^14C]betaine 10 μM, competitor 1 mM) was −5%.

In the case of `CNCC(=O)O` [MM, monomethylglycine], the “% inhibition of uptake of substrate” value (BetX with CbcWV) is reported as −13%, the “% inhibition of uptake of substrate” value (ChoXWV) is reported as −4% and the “% inhibition of uptake of substrate” value (CbcX and CaiX with CbcWV; [^14C]betaine 10 μM) is reported as 3%. The “% inhibition of uptake of substrate” value (CbcX and CaiX with CbcWV; [^14C]choline 10 μM) was 2%, the “% inhibition of uptake of substrate” value (CaiX with CbcWV) was 0% and the “% inhibition of uptake of substrate” value (CbcX with CbcWV) was −3% and 2%.

In the case of `C[N+](C)(C)CCOP(=O)(O)O` [PC, phosphorylcholine], the “% inhibition of uptake of substrate” value (ChoXWV) is reported as 5% and the “% inhibition of uptake of substrate” value (CbcX with CbcWV; MKH13, pNcbcXWV, SBP CbcX, [^14C]choline 10 μM, competitor 1 mM) is reported as 1%.

B1: ChoXWV (Sinorhizobium meliloti 1021) (protein)
chain: AEPESCGTVRFSDVGWTDITATTATATTILEALGYETDVKVLSVPVTYTSLKNKDIDVFLGNWMPTMEADIAPYREDKSVETVRENLAGAKYTLATNAKGAELGIKDFKDIAAHKDELDGKIYGIEPGNDGNRLIIDMVEKGTFDLKGFEVVESSEQGMLAQVARAEKSGDPIVFLGWEPHPMNANFKLTYLSGGDDVFGPNYGGATVHTNVRAGYTTECPNVGKLLQNLSFSLQMENEIMGKILNDGEDPEKAAAAWLKDNPQSIEPWLSGVATKDGGDGLAAVKAALGL
B1 was tested, and the Km ([1]; other: MKH13, pNchoXWV, SBP ChoX) was 1.8 (0.36) μM.

B2: CbcWV-CaiX (Pseudomonas aeruginosa PAO1) (protein)
chain: AEPEQCRTVRLGTVNWTDVVASSAVAEALLDGLGYQVKQTSASQQIVLAGLADKQLDLFLGYWQPTMQPVARPYLDKGRIEVIEPPTLADAQSTYAVPSYVAEGGLKTFADIARFKDKLGGRIYAIEPGSGSNRITRKMIDDNRFGLKGFQLVESSEAGMLTAVKRAIKRKQWVVFFGWKPHPMNLQIDMTYLTGSEDVFGPDEGAATVSTMTAAGYQAQCGNVARLLHNLRFSSAQVSQVMAPILDRTQPLDAARQWLKANPEPLKAWLDGVSTFDGKDGLAALQASLK
In the case of B2, the Km [2] is reported as 24 μM and 24.2 (8.3) μM.

B3: CbcX with CbcWV (Pseudomonas aeruginosa PAO1) (protein)
chain: AEPESCASVRFADVGWTDITVTTAVTRQVLESLGYKTKVNLLSVPVTYRSLANNDLDVFLGNWMPTMTNDIKQYAEKGTVETLRANLEGAKYTLAVPQYVYDGGLRSFADIAKFSDKLGNKIYGIEPGNDGNRVAQSMIDKNAFELGKFKLVESSEAGMLSQVQRAIRRNQWVVFLGWEPHPMNTRFQMKYLEGGDDFFGPNYGGATIYTNVRKGYAQECANVGQLLKNLSFTLEMENKLMDAVLNENKKPEEAAKAWLKDHPEQLDAWLAGVTTRDGQPAAAAAKLAFAK
B3 was tested, and the Km [1, 4] was 2.6 (0.66) μM, the Km [3, 4] was 24.2 (2.4) μM and the Vmax [3, 4] was 11.6 (0.6) nmol min^-1.

B4: BetX with CbcWV (Pseudomonas aeruginosa PAO1) (protein)
chain: ADKPVITIGYVDGWSDSVATTHVAAEVIREKLGYEVKLMPVAAGIMWQGVARGKLDAMLSAWLPGTHGAYYEKMKDKVVNLAINYPDARIGLIVPEYVSANSIADLQAQKDAFGGRVVGIDAGAGVMIKTDEAIKQYGLDYKLVASSGSGMIAELTRAENEKKPVVVTGWIPHWMFAKWKLKFLDDPKKVYGDTEHVDTVANPALEAKAKPVWEFLKKFGWKDGNEVGQVMLAIQEGAKPEDAAKQWVAANPGRVKDWVQ
With B4 the Km ([3]; other: MKH13, pNcbcWV + pTPA3236, SBP BetX) was 0.6 (0.16) μM.
